# In publication PMC12514245, “Impaired migration and lung invasion of human melanoma by a novel small molecule targeting the transmembrane domain of death receptor p75^NTR” (EMBO Molecular Medicine, 2025):
# System: A875 shp75 cells
# Assay: Wound healing cell motility assay, A875 shp75
# Assay type: cell-based, human
# Method: For wound healing assay, cells were grown until confluency and subjected to a wound across the cell mono-layer. Cells were then incubated with serum-free media either with DMSO or a small molecule (with or without 5 µM Q_VD_poH) and imaged at specific time-points. Cell migration is reflected as fold change in wound area over time.
smiles,measurement,setting,value
Oc1ccc(-c2cncc(Nc3ccc(Br)c(Cl)c3)n2)cc1 [Div17E5],Wound area (Fold),"A875 shp75, 1uM, 0 h, n2",1.053 Fold
same,Wound area (Fold),"A875 shp75, 1uM, 0 h, n3",0.966 Fold
same,Wound area (Fold),"A875 shp75, 1uM, 3 h, Mean",0.957 Fold
same,Wound area (Fold),"A875 shp75, 1uM, 3 h, n1",0.947 Fold
same,Wound area (Fold),"A875 shp75, 1uM, 3 h, n2",0.963 Fold
same,Wound area (Fold),"A875 shp75, 1uM, 3 h, n3",0.960 Fold
same,Wound area (Fold),"A875 shp75, 1uM, 6 h, Mean",0.921 Fold
same,Wound area (Fold),"A875 shp75, 1uM, 6 h, n1",0.914 Fold
same,Wound area (Fold),"A875 shp75, 1uM, 6 h, n2",0.924 Fold
same,Wound area (Fold),"A875 shp75, 1uM, 6 h, n3",0.923 Fold
same,Wound area (Fold),"A875 shp75, 1uM, 9 h, Mean",0.898 Fold
same,Wound area (Fold),"A875 shp75, 1uM, 9 h, n1",0.889 Fold
same,Wound area (Fold),"A875 shp75, 1uM, 9 h, n2",0.905 Fold
same,Wound area (Fold),"A875 shp75, 1uM, 9 h, n3",0.901 Fold
same,Wound area (Fold),"A875 shp75, 1uM, 12 h, Mean",0.873 Fold
same,Wound area (Fold),"A875 shp75, 1uM, 12 h, n1",0.869 Fold
same,Wound area (Fold),"A875 shp75, 1uM, 12 h, n2",0.870 Fold
same,Wound area (Fold),"A875 shp75, 1uM, 12 h, n3",0.881 Fold
same,Wound area (Fold),"A875 shp75, 1uM, 15 h, Mean",0.847 Fold
same,Wound area (Fold),"A875 shp75, 1uM, 15 h, n1",0.839 Fold
same,Wound area (Fold),"A875 shp75, 1uM, 15 h, n2",0.841 Fold
same,Wound area (Fold),"A875 shp75, 1uM, 15 h, n3",0.861 Fold
same,Wound area (Fold),"A875 shp75, 1uM, 18 h, Mean",0.821 Fold
same,Wound area (Fold),"A875 shp75, 1uM, 18 h, n1",0.821 Fold
same,Wound area (Fold),"A875 shp75, 1uM, 18 h, n2",0.823 Fold
same,Wound area (Fold),"A875 shp75, 1uM, 18 h, n3",0.820 Fold
same,Wound area (Fold),"A875 shp75, 1uM, 21 h, Mean",0.792 Fold
same,Wound area (Fold),"A875 shp75, 1uM, 21 h, n1",0.780 Fold
same,Wound area (Fold),"A875 shp75, 1uM, 21 h, n2",0.797 Fold
same,Wound area (Fold),"A875 shp75, 1uM, 21 h, n3",0.800 Fold
same,Wound area (Fold),"A875 shp75, 1uM, 24 h, Mean",0.773 Fold
same,Wound area (Fold),"A875 shp75, 1uM, 24 h, n1",0.775 Fold
same,Wound area (Fold),"A875 shp75, 1uM, 24 h, n2",0.773 Fold
same,Wound area (Fold),"A875 shp75, 1uM, 24 h, n3",0.771 Fold
same,Wound area (Fold),"A875 shp75, 2uM, 0 h, Mean",1.000 Fold
same,Wound area (Fold),"A875 shp75, 2uM, 0 h, n1",1.055 Fold
same,Wound area (Fold),"A875 shp75, 2uM, 0 h, n2",0.891 Fold
same,Wound area (Fold),"A875 shp75, 2uM, 0 h, n3",1.054 Fold
same,Wound area (Fold),"A875 shp75, 2uM, 3 h, Mean",0.908 Fold
same,Wound area (Fold),"A875 shp75, 2uM, 3 h, n1",0.882 Fold
same,Wound area (Fold),"A875 shp75, 2uM, 3 h, n2",0.921 Fold
same,Wound area (Fold),"A875 shp75, 2uM, 3 h, n3",0.922 Fold
same,Wound area (Fold),"A875 shp75, 2uM, 6 h, Mean",0.857 Fold
same,Wound area (Fold),"A875 shp75, 2uM, 6 h, n1",0.826 Fold
same,Wound area (Fold),"A875 shp75, 2uM, 6 h, n2",0.869 Fold
same,Wound area (Fold),"A875 shp75, 2uM, 6 h, n3",0.877 Fold
same,Wound area (Fold),"A875 shp75, 2uM, 9 h, Mean",0.836 Fold
same,Wound area (Fold),"A875 shp75, 2uM, 9 h, n1",0.818 Fold
same,Wound area (Fold),"A875 shp75, 2uM, 9 h, n2",0.854 Fold
same,Wound area (Fold),"A875 shp75, 2uM, 9 h, n3",0.836 Fold
same,Wound area (Fold),"A875 shp75, 2uM, 12 h, Mean",0.798 Fold
same,Wound area (Fold),"A875 shp75, 2uM, 12 h, n1",0.793 Fold
same,Wound area (Fold),"A875 shp75, 2uM, 12 h, n2",0.807 Fold
same,Wound area (Fold),"A875 shp75, 2uM, 12 h, n3",0.794 Fold
same,Wound area (Fold),"A875 shp75, 2uM, 15 h, Mean",0.786 Fold
same,Wound area (Fold),"A875 shp75, 2uM, 15 h, n1",0.790 Fold
same,Wound area (Fold),"A875 shp75, 2uM, 15 h, n2",0.776 Fold
same,Wound area (Fold),"A875 shp75, 2uM, 15 h, n3",0.791 Fold
same,Wound area (Fold),"A875 shp75, 2uM, 18 h, Mean",0.750 Fold
same,Wound area (Fold),"A875 shp75, 2uM, 18 h, n1",0.749 Fold
same,Wound area (Fold),"A875 shp75, 2uM, 18 h, n2",0.742 Fold
same,Wound area (Fold),"A875 shp75, 2uM, 18 h, n3",0.760 Fold
same,Wound area (Fold),"A875 shp75, 2uM, 21 h, Mean",0.731 Fold
same,Wound area (Fold),"A875 shp75, 2uM, 21 h, n1",0.738 Fold
same,Wound area (Fold),"A875 shp75, 2uM, 21 h, n2",0.705 Fold
same,Wound area (Fold),"A875 shp75, 2uM, 21 h, n3",0.751 Fold
same,Wound area (Fold),"A875 shp75, 2uM, 24 h, Mean",0.700 Fold
same,Wound area (Fold),"A875 shp75, 2uM, 24 h, n1",0.699 Fold
same,Wound area (Fold),"A875 shp75, 2uM, 24 h, n2",0.661 Fold
same,Wound area (Fold),"A875 shp75, 2uM, 24 h, n3",0.739 Fold
